Results as given in ChEMBL document CHEMBL4725268, “Anticonvulsant and analgesic in neuropathic pain activity in a group of new aminoalkanol derivatives” (Bioorg Med Chem Lett, 2020).
The source made the active and inactive calls.

What was measured:
Mus musculus [1] = experiment: Anticonvulsant activity in ip dosed albino mouse assessed as protection against 50 mA current-induced seizure by maximal electroshock seizure test; type: functional
[2] = Genotoxicity in Salmonella typhimurium TA98 assessed as number of revertant at 750 ug by AMES test (reference value: 8 to 8.3); type: toxicity, Salmonella enterica subsp. enterica serovar Typhimurium; conditions: in vivo; dose 750 µg
[3] = Genotoxicity in Salmonella typhimurium TA100 assessed as number of revertant at 200 ug by AMES test (reference value: 64.3 to 130.7); type: toxicity, Salmonella enterica subsp. enterica serovar Typhimurium; conditions: in vivo; dose 200 µg
in vitro [4] = conditions: mouse, microsomes
Description: Metabolic stability in mouse microsome assessed as intrinsic clearance

[5] = Genotoxicity in Salmonella typhimurium TA100 assessed as number of revertant at 75 ug by AMES test (reference value: 64.3 to 130.7); type: toxicity, Salmonella enterica subsp. enterica serovar Typhimurium; conditions: in vivo; dose 75 µg
[6] = Genotoxicity in Salmonella typhimurium TA100 assessed as mutagenic index at 10 ug by AMES test; type: toxicity, Salmonella enterica subsp. enterica serovar Typhimurium; conditions: in vivo; dose 10 µg
[7] = Genotoxicity in Salmonella typhimurium TA98 assessed as number of revertant at 75 ug by AMES test (reference value: 8 to 8.3); type: toxicity, Salmonella enterica subsp. enterica serovar Typhimurium; conditions: in vivo; dose 75 µg
in vitro [8] = conditions: mouse, microsomes; remark: listed apart in the source
Description: Metabolic stability in mouse microsome assessed as half life

[9] = Drug metabolism in mouse microsome assessed as formation of monohydroxylated metabolite; type: ADME; conditions: microsomes
[10] = Genotoxicity in Salmonella typhimurium TA98 assessed as mutagenic index at 750 ug by AMES test; type: toxicity, Salmonella enterica subsp. enterica serovar Typhimurium; conditions: in vivo; dose 750 µg
[11] = Genotoxicity in Salmonella typhimurium TA100 assessed as mutagenic index at 500 ug by AMES test; type: toxicity, Salmonella enterica subsp. enterica serovar Typhimurium; conditions: in vivo; dose 500 µg
[12] = Protection index, ratio of TD50 for toxicity in ip dosed mouse to ED50 for anticonvulsant activity in ip dosed mouse; type: organism-based; conditions: in vivo, read-out: PI
[13] = Genotoxicity in Salmonella typhimurium TA98 assessed as number of revertant at 200 ug by AMES test (reference value: 8 to 8.3); type: toxicity, Salmonella enterica subsp. enterica serovar Typhimurium; conditions: in vivo; dose 200 µg
[14] = Genotoxicity in Salmonella typhimurium TA100 assessed as number of revertant at 500 ug by AMES test (reference value: 64.3 to 130.7); type: toxicity, Salmonella enterica subsp. enterica serovar Typhimurium; conditions: in vivo; dose 500 µg
[15] = Genotoxicity in Salmonella typhimurium TA100 assessed as mutagenic index at 75 ug by AMES test; type: toxicity, Salmonella enterica subsp. enterica serovar Typhimurium; conditions: in vivo; dose 75 µg
[16] = Genotoxicity in Salmonella typhimurium TA98 assessed as number of revertant at 10 ug by AMES test (reference value: 8 to 8.3); type: toxicity, Salmonella enterica subsp. enterica serovar Typhimurium; conditions: in vivo; dose 10 µg
[17] = Toxicity in ip dosed mouse assessed as motor impairment by rotarod test; type: organism-based; conditions: in vivo
[18] = Genotoxicity in Salmonella typhimurium TA100 assessed as mutagenic index at 200 ug by AMES test; type: toxicity, Salmonella enterica subsp. enterica serovar Typhimurium; conditions: in vivo; dose 200 µg
[19] = Genotoxicity in Salmonella typhimurium TA98 assessed as mutagenic index at 10 ug by AMES test; type: toxicity, Salmonella enterica subsp. enterica serovar Typhimurium; conditions: in vivo; dose 10 µg
[20] = Genotoxicity in Salmonella typhimurium TA100 assessed as number of revertant at 10 ug by AMES test (reference value: 64.3 to 130.7); type: toxicity, Salmonella enterica subsp. enterica serovar Typhimurium; conditions: in vivo; dose 10 µg
[21] = target: T1, 5-hydroxytryptamine receptor 1A (Homo sapiens) (UniProt P08908); experiment: Binding affinity to 5-HT1A (unknown origin) at 10^-5 M; conditions: dose 1.0 10^-5M
T1 sequence (whole entry): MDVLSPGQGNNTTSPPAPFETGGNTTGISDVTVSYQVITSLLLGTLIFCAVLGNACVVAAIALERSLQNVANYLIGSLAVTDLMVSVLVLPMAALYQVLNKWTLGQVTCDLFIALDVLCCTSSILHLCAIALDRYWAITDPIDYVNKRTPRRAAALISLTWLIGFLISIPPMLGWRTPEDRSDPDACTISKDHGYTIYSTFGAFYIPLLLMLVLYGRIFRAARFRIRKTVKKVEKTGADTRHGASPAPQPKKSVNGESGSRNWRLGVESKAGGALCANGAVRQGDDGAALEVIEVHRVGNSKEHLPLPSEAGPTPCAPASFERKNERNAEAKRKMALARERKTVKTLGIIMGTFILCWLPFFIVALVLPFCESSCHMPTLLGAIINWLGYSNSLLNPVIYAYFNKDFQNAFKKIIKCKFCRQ

[22] = Genotoxicity in Salmonella typhimurium TA98 assessed as mutagenic index at 500 ug by AMES test; type: toxicity, Salmonella enterica subsp. enterica serovar Typhimurium; conditions: in vivo; dose 500 µg
[23] = Genotoxicity in Salmonella typhimurium TA98 assessed as mutagenic index at 75 ug by AMES test; type: toxicity, Salmonella enterica subsp. enterica serovar Typhimurium; conditions: in vivo; dose 75 µg
[24] = Genotoxicity in Salmonella typhimurium TA98 assessed as number of revertant at 500 ug by AMES test (reference value: 8 to 8.3); type: toxicity, Salmonella enterica subsp. enterica serovar Typhimurium; conditions: in vivo; dose 500 µg
[25] = Genotoxicity in Salmonella typhimurium TA98 assessed as mutagenic index at 200 ug by AMES test; type: toxicity, Salmonella enterica subsp. enterica serovar Typhimurium; conditions: in vivo; dose 200 µg
Mus musculus [26] = experiment: Anticonvulsant activity in ip dosed mouse assessed as protection against current-induced seizure by maximal electroshock seizure test; type: functional
[27] = target: T2, 5-hydroxytryptamine receptor 1A (Homo sapiens, UniProt P08908); experiment: Binding affinity to 5-HT1A (unknown origin)
T2 sequence (P08908 whole entry): T1 sequence (whole entry)

Mus musculus [28] = experiment: Antiallodynic activity in mouse model of OXA-induced peripheral neuropathy assessed as mean paw withdrawal threshold at 18 mg/kg, ip administered after 3 hrs of OXA stimulation and measured after 1 hr by Von-frey method (reference value: 3.144 +/- 0.169 g); type: functional
[29] = Genotoxicity in Salmonella typhimurium TA100 assessed as number of revertant at 750 ug by AMES test (reference value: 64.3 to 130.7); type: toxicity, Salmonella enterica subsp. enterica serovar Typhimurium; conditions: in vivo; dose 750 µg
Mus musculus [30] = experiment: Antiallodynic activity in mouse model of OXA-induced peripheral neuropathy assessed as mean paw withdrawal threshold at 18 mg/kg, ip administered after 7 days of OXA stimulation and measured after 1 hr by Von-frey method (reference value: 3.192 +/- 0.181 g); type: functional
Mus musculus [31] = experiment: Antiallodynic activity in mouse model of OXA-induced peripheral neuropathy assessed as mean latency time to nocifensive response at 18 mg/kg, ip administered after 3 hrs of OXA stimulation and measured after 1 hr by cold plate method (reference value: 59.76 +/- 0.16 sec); type: functional
[32] = Antioxidant activity assessed as DPPH radical scavenging activity at 125 to 1000 uM by microplate method; type: functional; conditions: dose microM 125-1000
Mus musculus [33] = experiment: Antiallodynic activity in mouse model of OXA-induced peripheral neuropathy assessed as mean latency time to nocifensive response at 18 mg/kg, ip administered after 7 days of OXA stimulation and measured after 1 hr by cold plate method (reference value: 57.64 +/- 1.267 sec); type: functional
[34] = Toxicity in mouse assessed as lethality at 50 mg/kg, ip; type: organism-based; conditions: in vivo
[35] = Genotoxicity in Salmonella typhimurium TA100 assessed as mutagenic index at 750 ug by AMES test; type: toxicity, Salmonella enterica subsp. enterica serovar Typhimurium; conditions: in vivo; dose 750 µg

| SMILES | ED50 (Mus musculus [1]) [mg/kg] | Activity [3] | microsomal CLint (in vitro [4]) [µL/min/mg] | Activity [5] | Activity_index [6] | Activity [7] | half-life (in vitro [8]) [h] | Drug metabolism [9] | selectivity ratio [12] | Activity [13] | Activity_index [15] | Activity [16] | TD50 [17] [mg/kg] | Activity_index [18] | Activity_index [19] | Activity [20] | Activity_index [22] | Activity_index [23] | Activity [24] | ED50 (Mus musculus [26]) [mg/kg] | also measured |
| --- | --- | --- | --- | --- | --- | --- | --- | --- | --- | --- | --- | --- | --- | --- | --- | --- | --- | --- | --- | --- | --- |
| CC(C)NC[C@@H](O)COc1cccc2ccccc12 [DEXPROPRANOLOL] | 16 | – | – | – | – | – | – | – | – | – | – | – | – | – | – | – | – | – | – | – | – |
| CC(C)NC[C@H](O)COc1cccc2ccccc12 [LEVOPROPRANOLOL] | 19.2 | – | – | – | – | – | – | – | – | – | – | – | – | – | – | – | – | – | – | – | – |
| Cc1cccc(C)c1OCCOCCNC1CCC(O)CC1.Cl (stereo not given) | – | 55 | 19.8 | 312.3 | 3.1 | 8.3 | 1.46 | Metabolite_Detected | 3.99 | 9.3 | 4.3 | 8 | 132 | 0.8 | 1 | 226.7 | 0.8 | 1 | 6.7 | 33 | Activity [2]: 3; Activity_index [10]: 0.4; Activity_index [11]: 3.8; Activity [14]: 274.3; Activity [21]: inactive; Activity_index [25]: 1.2 |
| Cc1cc(C)c(C)c(OCCOCCN[C@H]2CCCC[C@@H]2O)c1.Cl (racemic) | – | 70.5 | 93 | 80.7 | 1.2 | 8 | 0.62 | Metabolite_Detected | 2.91 | 11 | 1.1 | 7 | 54.2 | 1 | 0.9 | 86 | 1.1 | 1 | 9 | 18.2 | Ki [27]: 1200 nM; Activity (Mus musculus [28]): 2.09 g; Activity [29]: 56; Activity (Mus musculus [30]): 1.907 g; Time (Mus musculus [31]): 20.92 s; Activity [32]: inactive; Time (Mus musculus [33]): 8.86 s; Activity [34]: Non-Toxic; Activity_index [25]: 1.4; Activity_index [35]: 0.4 |
| O=C1NC(=O)C(c2ccccc2)(c2ccccc2)N1 [PHENYTOIN] | – | – | – | – | – | – | – | – | 8.56 | – | – | – | – | – | – | – | – | – | – | – | – |
| CC[C@@H](CO)NCCOCCOc1ccc(C)cc1C.Cl | – | – | – | – | – | – | – | – | 2.33 | – | – | – | 94.4 | – | – | – | – | – | – | 40.5 | – |
